Assay results: patent US20240384268A1, “Oligonucleotides” (Hudson Institute of Medical Research, priority 2021, published 2024)

Molecular target: T1, TLR8 (Homo sapiens, UniProt Q9NR97)
T1 sequence (Q9NR97 27-1041): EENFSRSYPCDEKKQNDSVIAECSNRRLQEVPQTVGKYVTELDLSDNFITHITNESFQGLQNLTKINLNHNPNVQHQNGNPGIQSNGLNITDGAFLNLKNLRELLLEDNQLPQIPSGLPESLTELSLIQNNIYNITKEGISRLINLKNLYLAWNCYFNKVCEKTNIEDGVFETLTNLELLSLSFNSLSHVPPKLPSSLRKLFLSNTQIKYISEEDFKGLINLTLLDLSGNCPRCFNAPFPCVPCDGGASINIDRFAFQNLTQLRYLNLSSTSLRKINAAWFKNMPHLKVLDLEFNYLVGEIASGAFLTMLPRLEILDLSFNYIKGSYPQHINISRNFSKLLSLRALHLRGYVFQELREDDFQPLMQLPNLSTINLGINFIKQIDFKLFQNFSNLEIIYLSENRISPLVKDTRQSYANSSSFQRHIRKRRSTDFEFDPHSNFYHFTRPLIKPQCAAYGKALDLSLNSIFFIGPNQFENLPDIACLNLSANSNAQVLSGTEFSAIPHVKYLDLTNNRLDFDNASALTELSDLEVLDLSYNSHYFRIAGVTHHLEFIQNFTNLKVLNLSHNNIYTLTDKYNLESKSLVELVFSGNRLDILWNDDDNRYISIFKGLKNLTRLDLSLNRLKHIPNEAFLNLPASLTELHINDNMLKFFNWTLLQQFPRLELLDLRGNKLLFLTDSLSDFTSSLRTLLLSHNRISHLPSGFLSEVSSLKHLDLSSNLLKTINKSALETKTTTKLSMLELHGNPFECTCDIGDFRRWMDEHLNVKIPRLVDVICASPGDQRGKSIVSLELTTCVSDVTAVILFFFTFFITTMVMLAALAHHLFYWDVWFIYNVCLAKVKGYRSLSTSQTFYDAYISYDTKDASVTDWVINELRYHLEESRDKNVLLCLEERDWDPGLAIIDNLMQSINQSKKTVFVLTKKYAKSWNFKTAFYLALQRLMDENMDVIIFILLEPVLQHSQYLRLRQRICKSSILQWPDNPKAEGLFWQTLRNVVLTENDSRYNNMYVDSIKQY
Assay: HEK-TLR8 NF-κB-luciferase reporter, R848 or Motolimod stimulation (potentiation or inhibition)
Format: cell-based
Set-up: expressed in transfected cells; host or cells: 293XLhTLR8 (HEK293)
Settings: MOE-modified ASO at 100 nM; averaged NF-κB-Luciferase relative to R848 condition (fold increase)

Row | Sequence | TLR8 100 nM
1 | CGTGTCTGGAAGCTTCCTTT (antisense; 2'-MOE modified, pattern not given here) [CTNN2B-808 MOE] | 1.476
2 | CTCTTGAAGCATCGTATCAC (antisense; 2'-MOE modified, pattern not given here) [CTNN2B-3648 MOE] | 1.650
3 | CTGTGATCTTGACATGCTGC (antisense; 2'-MOE modified, pattern not given here) [EGFR-2790 MOE] | 1.308
4 | CTTACTTTCCGAGGTGTCCA (antisense; 2'-MOE modified, pattern not given here) [CAMSAP1-1739 MOE] | 3.892
5 | GAACCACGTCTGCTCTAACA (antisense; 2'-MOE modified, pattern not given here) [CAMSAP1-1635 MOE] | 2.787
6 | GAGGTCTTGGCTTCGTGGAG (antisense; 2'-MOE modified, pattern not given here) [MB21D1-523 MOE] | 1.822
7 | GAGTCTCTGGAGCTTCCTCT (antisense; 2'-MOE modified, pattern not given here) [CAMSAP1-2456 MOE] | 0.849
8 | GATGCTCCTCGGTCTCCCTT (antisense; 2'-MOE modified, pattern not given here) [CAMSAP1-1850 MOE] | 1.392
9 | GATGGCCTCCCATCTCCTTC (antisense; 2'-MOE modified, pattern not given here) [HPRT-329 MOE] | 0.979
10 | GCCGCTTTTCTGTCTGGTTC (antisense; 2'-MOE modified, pattern not given here) [CTNN2B-311 MOE] | 0.968
11 | GCGACTATACGCGCAATATG (antisense; 2'-MOE modified, pattern not given here) [NC5 2′MOE] | 1.067
12 | GCGGAGGTCTTGGCTTCGTG (antisense; 2'-MOE modified, pattern not given here) [MB21D1-526 MOE] | 1.598
13 | GCGTATTATAGCCGATTAAC (antisense; 2'-MOE modified, pattern not given here) [NC1 2′MOE] | 1.883
14 | GCGTGTCTGGAAGCTTCCTT (antisense; 2'-MOE modified, pattern not given here) [CTNN2B-809 MOE] | 1.179
15 | GCTTCAGGCGCTGCCTTGCC (antisense; 2'-MOE modified, pattern not given here) [CAMSAP1-2709 MOE] | 0.985
16 | GGAGATTTCAGAGCAGCTTC (antisense; 2'-MOE modified, pattern not given here) [EGFR-4885 MOE] | 3.122
17 | GGAGCTTCGAGGCCCCAGGC (MOE modified, pattern not given here) [MB21D1-616 MOE] | 0.760
18 | GGAGGTCTTGGCTTCGTGGA (antisense; 2'-MOE modified, pattern not given here) [MB21D1-524 MOE] | 3.976
19 | GGCATCCACCACGTCGTCCA (antisense; 2'-MOE modified, pattern not given here) [EGFR-3266 MOE] | 1.619

Row | Sequence | TLR8 100 nM
20 | GGGAAAGGTTATGCAAGGTC (antisense; 2'-MOE modified, pattern not given here) [CTNN2B-916 MOE] | 3.117
21 | GGTCCATACCCAAGGCATCC (antisense; 2'-MOE modified, pattern not given here) [CTNN2B-2446 MOE] | 1.901
22 | GGTGGTCCACAACCCCTTTC (antisense; 2'-MOE modified, pattern not given here) [MB21D1-697 MOE] | 2.121
23 | GGTGGTGGCCACCCATCTCA (antisense; 2'-MOE modified, pattern not given here) [CTNN2B-2479 MOE] | 1.491
24 | GGTGTCCTTGCACGTGGCTT (antisense; 2'-MOE modified, pattern not given here) [EGFR-1016 MOE] | 1.532
25 | GTCCACATCCTGTGGCTCGT (antisense; 2'-MOE modified, pattern not given here) [CAMSAP1-2906 MOE] | 0.919
26 | GTCCTTGCACGTGGCTTCGT (antisense; 2'-MOE modified, pattern not given here) [EGFR-1013 MOE] | 1.900
27 | GTCTTGGCTTCGTGGAGCAG (antisense; 2'-MOE modified, pattern not given here) [MB21D1-520 MOE] | 2.383
28 | GTGTCCTTGCACGTGGCTTC (antisense; 2'-MOE modified, pattern not given here) [EGFR-1015 MOE] | 1.383
29 | GTGTCTTCATCGGCCCTGCC (antisense; 2'-MOE modified, pattern not given here) [CAMSAP1-2113 MOE] | 1.247
30 | TAGGCACTTTGCCTCCTTCT (antisense; 2'-MOE modified, pattern not given here) [EGFR-2859 MOE] | 0.773
31 | TAGTCAAGGGCATATCCTAC (antisense; 2'-MOE modified, pattern not given here) [HPRT-732 MOE] | 1.457
32 | TCAAAGGACTGAGGAAAGGG (antisense; 2'-MOE modified, pattern not given here) [CAMSAP1-6273 MOE] | 3.896
33 | TCCAACACTTCGTGGGGTCC (antisense; 2'-MOE modified, pattern not given here) [HPRT-667 MOE] | 1.142
34 | TCGCACTTCAGTCTGAGCAG (antisense; 2'-MOE modified, pattern not given here) [MB21D1-719 MOE] | 1.697
35 | TGTCCTTGCACGTGGCTTCG (antisense; 2'-MOE modified, pattern not given here) [EGFR-1014 MOE] | 1.187
36 | TGTCTTCATCGGCCCTGCCT (antisense; 2'-MOE modified, pattern not given here) [CAMSAP1-2112 MOE] | 1.331
37 | TGTGATGGCCTCCCATCTCC (antisense; 2'-MOE modified, pattern not given here) [HPRT-332 MOE] | 0.940

Same assay, conditions: MOE-modified ASO at 500 nM; averaged NF-κB-Luciferase relative to R848 condition (fold increase)

Row | Sequence | TLR8 500 nM
38 | CGTGTCTGGAAGCTTCCTTT (antisense; 2'-MOE modified, pattern not given here) [CTNN2B-808 MOE] | 1.222
39 | CTCTTGAAGCATCGTATCAC (antisense; 2'-MOE modified, pattern not given here) [CTNN2B-3648 MOE] | 2.200
40 | CTGTGATCTTGACATGCTGC (antisense; 2'-MOE modified, pattern not given here) [EGFR-2790 MOE] | 1.387
41 | CTTACTTTCCGAGGTGTCCA (antisense; 2'-MOE modified, pattern not given here) [CAMSAP1-1739 MOE] | 4.827
42 | GAACCACGTCTGCTCTAACA (antisense; 2'-MOE modified, pattern not given here) [CAMSAP1-1635 MOE] | 3.827
43 | GAGGTCTTGGCTTCGTGGAG (antisense; 2'-MOE modified, pattern not given here) [MB21D1-523 MOE] | 2.164
44 | GAGTCTCTGGAGCTTCCTCT (antisense; 2'-MOE modified, pattern not given here) [CAMSAP1-2456 MOE] | 0.683
45 | GATGCTCCTCGGTCTCCCTT (antisense; 2'-MOE modified, pattern not given here) [CAMSAP1-1850 MOE] | 1.954
46 | GATGGCCTCCCATCTCCTTC (antisense; 2'-MOE modified, pattern not given here) [HPRT-329 MOE] | 1.698
47 | GCCGCTTTTCTGTCTGGTTC (antisense; 2'-MOE modified, pattern not given here) [CTNN2B-311 MOE] | 0.369
48 | GCGACTATACGCGCAATATG (antisense; 2'-MOE modified, pattern not given here) [NC5 2′MOE] | 0.883
49 | GCGGAGGTCTTGGCTTCGTG (antisense; 2'-MOE modified, pattern not given here) [MB21D1-526 MOE] | 2.226
50 | GCGTATTATAGCCGATTAAC (antisense; 2'-MOE modified, pattern not given here) [NC1 2′MOE] | 2.777
51 | GCGTGTCTGGAAGCTTCCTT (antisense; 2'-MOE modified, pattern not given here) [CTNN2B-809 MOE] | 0.494
52 | GCTTCAGGCGCTGCCTTGCC (antisense; 2'-MOE modified, pattern not given here) [CAMSAP1-2709 MOE] | 0.620
53 | GGAGATTTCAGAGCAGCTTC (antisense; 2'-MOE modified, pattern not given here) [EGFR-4885 MOE] | 4.308
54 | GGAGCTTCGAGGCCCCAGGC (MOE modified, pattern not given here) [MB21D1-616 MOE] | 0.380
55 | GGAGGTCTTGGCTTCGTGGA (antisense; 2'-MOE modified, pattern not given here) [MB21D1-524 MOE] | 5.288
56 | GGCATCCACCACGTCGTCCA (antisense; 2'-MOE modified, pattern not given here) [EGFR-3266 MOE] | 1.566

Row | Sequence | TLR8 500 nM
57 | GGGAAAGGTTATGCAAGGTC (antisense; 2'-MOE modified, pattern not given here) [CTNN2B-916 MOE] | 3.500
58 | GGTCCATACCCAAGGCATCC (antisense; 2'-MOE modified, pattern not given here) [CTNN2B-2446 MOE] | 2.107
59 | GGTGGTCCACAACCCCTTTC (antisense; 2'-MOE modified, pattern not given here) [MB21D1-697 MOE] | 3.700
60 | GGTGGTGGCCACCCATCTCA (antisense; 2'-MOE modified, pattern not given here) [CTNN2B-2479 MOE] | 0.874
61 | GGTGTCCTTGCACGTGGCTT (antisense; 2'-MOE modified, pattern not given here) [EGFR-1016 MOE] | 1.019
62 | GTCCACATCCTGTGGCTCGT (antisense; 2'-MOE modified, pattern not given here) [CAMSAP1-2906 MOE] | 0.493
63 | GTCCTTGCACGTGGCTTCGT (antisense; 2'-MOE modified, pattern not given here) [EGFR-1013 MOE] | 1.593
64 | GTCTTGGCTTCGTGGAGCAG (antisense; 2'-MOE modified, pattern not given here) [MB21D1-520 MOE] | 3.536
65 | GTGTCCTTGCACGTGGCTTC (antisense; 2'-MOE modified, pattern not given here) [EGFR-1015 MOE] | 1.274
66 | GTGTCTTCATCGGCCCTGCC (antisense; 2'-MOE modified, pattern not given here) [CAMSAP1-2113 MOE] | 1.093
67 | TAGGCACTTTGCCTCCTTCT (antisense; 2'-MOE modified, pattern not given here) [EGFR-2859 MOE] | 0.884
68 | TAGTCAAGGGCATATCCTAC (antisense; 2'-MOE modified, pattern not given here) [HPRT-732 MOE] | 2.087
69 | TCAAAGGACTGAGGAAAGGG (antisense; 2'-MOE modified, pattern not given here) [CAMSAP1-6273 MOE] | 3.406
70 | TCCAACACTTCGTGGGGTCC (antisense; 2'-MOE modified, pattern not given here) [HPRT-667 MOE] | 1.432
71 | TCGCACTTCAGTCTGAGCAG (antisense; 2'-MOE modified, pattern not given here) [MB21D1-719 MOE] | 2.158
72 | TGTCCTTGCACGTGGCTTCG (antisense; 2'-MOE modified, pattern not given here) [EGFR-1014 MOE] | 1.433
73 | TGTCTTCATCGGCCCTGCCT (antisense; 2'-MOE modified, pattern not given here) [CAMSAP1-2112 MOE] | 1.178
74 | TGTGATGGCCTCCCATCTCC (antisense; 2'-MOE modified, pattern not given here) [HPRT-332 MOE] | 0.938
